In patent US20250221988A1 (Cullgen (Shanghai), Inc., priority 2022, published 2025):
Read-outs that look alike come from different tables or passages of the source.

Experiments:
MV4;11 cells = test: Cell viability assay (CellTiter-Glo) in MV4;11 cells; format: cell-based; settings: read-out: MV4
Experimental: (§1) Cell Culture: RS4;11, MV4;11, MOLM-13 and other cells were cultured at 37° C. with 5% CO2 in RPMI 1640 or DMEM Medium supplemented with 10% fetal bovine serum. Cells were authenticated using the short tandem repeat (STR) assays. Mycoplasma test results were negative.
(§2) Cell viability assays: Cells were seeded at a density of 5000 cells per well in 96-well assay plates and treated with test compounds following a 8-point or 12-point 3-fold serial dilution. Three days later, cell viability was determined using the CellTiter-Glo assay kit according to the manufacturer's instructions. The dose-response curves were determined and IC50 values were calculated using the GraphPad Prism software following a nonlinear regression (least squares fit) method.
The IC50 values (nM) of each compound were determined in MV4;11 and MOLM-13 cells with or without gilteritinib (10 nM for MV4;11; and 20 nM for MOML-13) as described in the Materials and Methods subsection and calculated using the GraphPad Prism 5.0 software.

MOLM-13 cells = test: Cell viability assay (CellTiter-Glo) in MOLM-13 cells; format: cell-based
Experimental: as §1
as §2, with “method. […]” for “method.”

[1] = Homo sapiens, MV4-11, 72 h, MV4;11 cells, compound alone, three days, 11 IC50
[2] = MV4;11 cells, with 10 nM gilteritinib, three days, 11 IC50 (nM) + 10 nM Gil
[3] = Homo sapiens, 72 h, MOLM-13 cells, compound alone, three days, read-out: MOLM-13 IC50
[4] = MOLM-13 cells, with gilteritinib, three days, read-out: MOLM-13 IC50 (nM) + 10 nM Gil

Row | IC50 (MV4;11 cells; [1]) [nM] | IC50 (MV4;11 cells; [2]) [nM] | IC50 (MOLM-13 cells; [3]) [nM] | IC50 (MOLM-13 cells; [4]) [nM] | Structure (SMILES) | IC50 (MV4;11 cells; Homo sapiens, MV4-11, 72 h, 11 IC50 (nM)) [nM] | IC50 (MV4;11 cells; 11 IC50 (nM) + 10 nM Gil, MV4;11 cells, with 10 nM gilteritinib, three days) [nM] | IC50 (MOLM-13 cells; Homo sapiens, MOLM-13, 72 h, read-out: MOLM-13 IC50 (nM)) [nM] | IC50 (MOLM-13 cells; read-out: MOLM-13 IC50 (nM) + 10 nM Gil, MOLM-13 cells, with gilteritinib, three days) [nM]
1 | < 10 | < 10 | 10 to 100 | < 10 | N[C@H]1C[C@@H](n2cc3cnc(-c4cn([C@H]5C[C@H](CNc6ccc7c(c6)C(=O)N(C6CCC(=O)NC6=O)C7=O)C5)nc4C4CC4)cc3n2)C1 (stereo partly drawn) [GS-785, 5-(((Trans-3-(4-(2-(cis-3-aminocyclobutyl)-2H-pyrazolo[4,3-c]pyridin-6-yl)-3-cyclopropyl-1H-pyrazol-1-yl)cyclobutyl)methyl)amino)-2-(2,6-dioxopiperidin-3-yl)isoindoline-1,3-dione] |  |  |  | 
2 | 100 to 1000 | 10 to 100 | > 1000 | 100 to 1000 | Cc1nc(-c2cn([C@H]3C[C@H](CNc4ccc5c(c4)C(=O)N(C4CCC(=O)NC4=O)C5)C3)nc2C2CC2)ccc1F (stereo partly drawn) [GS-732, 3-(6-(((Trans-3-(3-cyclopropyl-4-(5-fluoro-6-methylpyridin-2-yl)-1H-pyrazol-1-yl)cyclobutyl)methyl)amino)-1-oxoisoindolin-2-yl)piperidine-2,6-dione] |  |  |  | 
3 | > 1000 | 100 to 1000 | > 1000 | 100 to 1000 | Cc1ccnc2c1c(C1CC1)nn2[C@H]1C[C@H](CNc2ccc3c(c2)C(=O)N(C2CCC(=O)NC2=O)C3=O)C1 (stereo partly drawn) [GS-679, 5-(((Trans-3-(3-cyclopropyl-4-methyl-1H-pyrazolo[3,4-b]pyridin-1-yl)cyclobutyl)methyl)amino)-2-(2,6-dioxopiperidin-3-yl)isoindoline-1,3-dione] |  |  |  | 
4 | > 1000 | 100 to 1000 | > 1000 | 100 to 1000 | O=C1CCC(N2C(=O)c3ccc(OC[C@H]4C[C@H](n5cc(-c6cnc7ccccc7n6)c(C6CC6)n5)C4)cc3C2=O)C(=O)N1 (stereo partly drawn) [GS-640, 5-((Trans-3-(3-cyclopropyl-4-(quinoxalin-2-yl)-1H-pyrazol-1-yl)cyclobutyl)methoxy)-2-(2,6-dioxopiperidin-3-yl)isoindoline-1,3-dione] |  |  |  | 
5 | 10 to 100 | < 10 | 10 to 100 | < 10 | Cc1cc(F)cnc1-c1cn([C@H]2C[C@H](CNc3ccc4c(c3)C(=O)N(C3CCC(=O)NC3=O)C4=O)C2)nc1C(F)F (stereo partly drawn) [GS-719, 5-(((Trans-3-(3-(Difluoromethyl)-4-(5-fluoro-3-methylpyridin-2-yl)-1H-pyrazol-1-yl)cyclobutyl)methyl)amino)-2-(2,6-dioxopiperidin-3-yl)isoindoline-1,3-dione] |  |  |  | 
6 | > 1000 | 100 to 1000 | > 1000 | 100 to 1000 | Cn1ccnc1-c1cn([C@H]2C[C@H](CNc3ccc4c(c3)C(=O)N(C3CCC(=O)NC3=O)C4=O)C2)nc1C1CC1 (stereo partly drawn) [GS-687, 5-(((Trans-3-(3-cyclopropyl-4-(1-methyl-1H-imidazol-2-yl)-1H-pyrazol-1-yl)cyclobutyl)methyl)amino)-2-(2,6-dioxopiperidin-3-yl)isoindoline-1,3-dione] |  |  |  | 
7 | < 10 | < 10 | < 10 | < 10 | O=C1CCC(N2C(=O)c3ccc(NC[C@H]4C[C@H](n5cc(-c6cc7nn([C@H]8CC[C@H](O)CC8)cc7cn6)c(C6CC6)n5)C4)cc3C2=O)C(=O)N1 (stereo partly drawn) [GS-789, 5-(((Trans-3-(3-cyclopropyl-4-(2-(trans-4-hydroxycyclohexyl)-2H-pyrazolo[4,3-c]pyridin-6-yl)-1H-pyrazol-1-yl)cyclobutyl)methyl)amino)-2-(2,6-dioxopiperidin-3-yl)isoindoline-1,3-dione] |  |  |  | 
8 |  |  |  |  | O=C1CCC(N2C(=O)c3ccc(NC[C@H]4C[C@H](n5cc(-c6cccc(N7CCC7)c6)c(C6CC6)n5)C4)cc3C2=O)C(=O)N1 (stereo partly drawn) [GS-653, 5-(((Trans-3-(4-(3-(azetidin-1-yl)phenyl)-3-cyclopropyl-1H-pyrazol-1-yl)cyclobutyl)methyl)amino)-2-(2,6-dioxopiperidin-3-yl)isoindoline-1,3-dione] | 100 to 1000 | 10 to 100 | > 1000 | 10 to 100
9 | 10 to 100 | 10 to 100 | 100 to 1000 | 10 to 100 | O=C1CCC(N2C(=O)c3ccc(NC[C@H]4C[C@H](n5cc(-c6ccc7cn[nH]c7n6)c(C6CC6)n5)C4)cc3C2=O)C(=O)N1 (stereo partly drawn) [GS-714, 5-(((Trans-3-(3-cyclopropyl-4-(1H-pyrazolo[3,4-b]pyridin-6-yl)-1H-pyrazol-1-yl)cyclobutyl)methyl)amino)-2-(2,6-dioxopiperidin-3-yl)isoindoline-1,3-dione] |  |  |  | 
10 | > 1000 | 100 to 1000 | > 1000 | 100 to 1000 | O=C1CCC(N2C(=O)c3ccc(NC[C@H]4C[C@H](n5cc(-c6ncc(F)cc6C6CCNCC6)c(C6CC6)n5)C4)cc3C2=O)C(=O)C1 (stereo partly drawn) [GS-686, 5-(((Trans-3-(3-cyclopropyl-4-(5-fluoro-3-(piperidin-4-yl)pyridin-2-yl)-1H-pyrazol-1-yl)cyclobutyl)methyl)amino)-2-(2,4-dioxocyclohexyl)isoindoline-1,3-dione] |  |  |  | 
11 | > 1000 |  | > 1000 | 100 to 1000 | O=C1CCC(N2C(=O)c3ccc(NC[C@H]4C[C@H](n5nc(C6CC6)c6nccnc65)C4)cc3C2=O)C(=O)N1 (stereo partly drawn) [GS-648, 5-(((Trans-3-(3-cyclopropyl-1H-pyrazolo[3,4-b]pyrazin-1-yl)cyclobutyl)methyl)amino)-2-(2,6-dioxopiperidin-3-yl)isoindoline-1,3-dione] |  |  |  | 
12 | 10 to 100 | < 10 | 10 to 100 | < 10 | O=C1CCC(N2C(=O)c3ccc(NC[C@H]4C[C@H](n5cc(-c6cnc7c(NC(CO)CO)cccc7n6)c(C6CC6)n5)C4)cc3C2=O)C(=O)N1 (stereo partly drawn) [GS-710, 5-(((Trans-3-(3-cyclopropyl-4-(5-((1,3-dihydroxypropan-2-yl)amino)quinoxalin-2-yl)-1H-pyrazol-1-yl)cyclobutyl)methyl)amino)-2-(2,6-dioxopiperidin-3-yl)isoindoline-1,3-dione] |  |  |  | 
13 | < 10 | < 10 | < 10 | < 10 | Cc1cc(F)cnc1-c1cn([C@H]2C[C@H](CNc3ccc4c(c3)CN(C3CCC(=O)NC3=O)C4=O)C2)nc1C1CC1 (stereo partly drawn) [GS-676, 3-(5-(((Trans-3-(3-cyclopropyl-4-(5-fluoro-3-methylpyridin-2-yl)-1H-pyrazol-1-yl)cyclobutyl)methyl)amino)-1-oxoisoindolin-2-yl)piperidine-2,6-dione] |  |  |  | 
14 | > 1000 | 100 to 1000 | > 1000 | 100 to 1000 | Cc1cnc2c(c1)c(C1CC1)nn2[C@H]1C[C@H](CNc2ccc3c(c2)C(=O)N(C2CCC(=O)NC2=O)C3=O)C1 (stereo partly drawn) [GS-673, 5-(((Trans-3-(3-cyclopropyl-5-methyl-1H-pyrazolo[3,4-b]pyridin-1-yl)cyclobutyl)methyl)amino)-2-(2,6-dioxopiperidin-3-yl)isoindoline-1,3-dione] |  |  |  | 
15 | < 10 | < 10 | < 10 | < 10 | Cc1cc(F)cnc1-c1cn([C@H]2C[C@H](CNc3ccc4c(c3)CN(C3CCC(=O)NC3=O)C4=O)C2)nc1C(F)F (stereo partly drawn) [GS-668, 3-(5-(((Trans-3-(3-(difluoromethyl)-4-(5-fluoro-3-methylpyridin-2-yl)-1H-pyrazol-1-yl)cyclobutyl)methyl)amino)-1-oxoisoindolin-2-yl)piperidine-2,6-dione] |  |  |  | 
16 | > 1000 |  | > 1000 |  | O=C1CCC(N2C(=O)c3ccc(NC[C@H]4C[C@H](n5cc(-c6ncc(F)cc6N6CCNCC6)c(C6CC6)n5)C4)cc3C2=O)C(=O)N1 (stereo partly drawn) [GS-683, 5-(((Trans-3-(3-cyclopropyl-4-(5-fluoro-3-(piperazin-1-yl)pyridin-2-yl)-1H-pyrazol-1-yl)cyclobutyl)methyl)amino)-2-(2,6-dioxopiperidin-3-yl)isoindoline-1,3-dione] |  |  |  | 
17 | > 1000 |  | > 1000 | 100 to 1000 | Cc1ccc2c(C3CC3)nn([C@H]3C[C@H](CNc4ccc5c(c4)C(=O)N(C4CCC(=O)NC4=O)C5=O)C3)c2n1 (stereo partly drawn) [GS-672, 5-(((Trans-3-(3-cyclopropyl-6-methyl-1H-pyrazolo[3,4-b]pyridin-1-yl)cyclobutyl)methyl)amino)-2-(2,6-dioxopiperidin-3-yl)isoindoline-1,3-dione] |  |  |  | 
18 |  |  | 10 to 100 |  | Cc1nc(-c2cn([C@H]3C[C@H](CNc4ccc5c(c4)CN([C@@H]4CCC(=O)NC4=O)C5=O)C3)nc2C2CC2)ccc1F [GS-801, (R)-3-(5-(((trans-3-(3-cyclopropyl-4-(5-fluoro-6-methylpyridin-2-yl)-1H-pyrazol-1-yl)cyclobutyl)methyl)amino)-1-oxoisoindolin-2-yl)piperidine-2,6-dione] |  |  |  | 
